Patent US20230077723A1, “N-SUBSTITUTED-3,4-(FUSED 5-RING)-5-PHENYL-PYRROLIDINE-2-ONE COMPOUNDS AS INHIBITORS OF ISOQC AND/OR QC ENZYME” (Scenic Immunology B.V., priority 2019, published 2023)

The compounds below were run on pyroglutamylated CD47 (pE-CD47) in KBM7 cells (assay: Assay 6 - cell-based potency assay (pE-CD47 CC2C6 staining vs total CD47)). Details: 72 hours, CC2C6 signal, read-out: Cell Pot. Assay No. 6.
Parameters: species or system human
Experimental: Cells were spun for 4 minutes at 1500 rpm and washed once with PBS/0.5% BSA. Cells were spun down again and the supernatant was removed and incubated in 100 uL antibody staining solution (PBS/0.5% BSA/0.1 μg/mL DAPI (4′,6-diamidino-2-phenylindole, ThermoFisher Scientific) and a mixture of 1:500 FITC-conjugated anti-human CD47 clone 2D3, which recognizes total CD47 irrespective of its pyroglutamylation state, and 1:500 Alexa647-conjugated anti-human CD47 clone CC2C6, which specifically detects pyroglutamylated CD47) for 2 hours at 4° C. Next, the cells were spun down and washed twice with 2×150 μL PBS/0.5% BSA to remove unbound antibody. Cells were again spun down and taken up in 300 μL FACS buffer before analysis on a Celesta FACS machine (BD Biosciences).
KBM7 cells (Kotecki et al., 1999) were infected with lentivirus produced by transfecting pSCNC-LentiCRISPR-QPCTL or pSCNC-LentiCRISPR-CD47 into HEK-293T cells according to standard protocols. After 24 hours incubation, cells were selected with puromycin (Invivogen, 1 μg/mL) for 48 hours. Cells were stained for total CD47 and pE-CD47 and QPCTL k.o. cells were sorted out as negative for pE-CD47, and CD47 k.o. cells as negative for total CD47, using a FACSAria III and FACS Diva software (BD Biosciences).
In order to test compounds for their effect on pyroglutamylation in live cells, 25000 KBM7 cells per well were seeded in a 96-well U-bottom plate in 150 μl IMDM/10% FCS/1% Pen/Strep medium and a 10-point 2-fold dilution range of test compounds. After 72 hours incubation at 37° C., 5% CO2, cells were stained for total CD47 and pE-CD47 and analyzed on a BD Celesta using FACS Diva software (BD Biosciences). Cells gated for DAPI negativity were recorded and the median fluorescence intensity (MFI) of each sample was transformed to linearly scale between the MFI's of wildtype and CD47 knockout cells (in case of the 2D3 antibody) and the wildtype and QPCTL knockout cells (in case of the CC2C6 antibody). IC50's were calculated by 3 parameter logistic regression of the CC2C6 signal vs. compound concentration, where the top of the sigmoidal curve was fixed at 1, using R and the drc package (http://www.r-project.org, https://cran.r-project.org/web/packages/drc/index.html).

Row | IC50 [µM] | SMILES
1 | 1 to 5 | Cc1c2c(nn1C)C(=O)N(c1ccc3[nH]cnc3c1)C2c1ccc(N2CCC(F)(F)C2)c(F)c1F (centres unmarked) [FRPPO-066]
2 | < 1 | Cc1[nH]nc2c1C(c1ccc(N3CCC(F)(F)C3)cc1F)N(c1ccc3[nH]cnc3c1)C2=O (centres unmarked) [FRPPO-126C]

Same assay, conditions: Homo sapiens, KBM-7, 72 h, CC2C6 signal, Table 2, read-out: Cell Potency Assay 6 (Comparison Data)

Row | IC50 [µM] | SMILES
3 | < 1 | CCCOc1ccc(C2c3c(nn(C)c3C)C(=O)N2c2ccc3[nH]cnc3c2)cc1 (racemic) [FRPPO-001]
4 | > 6.25 | CCCOc1ccc(C2c3c(nn(C)c3C)C(=O)N2c2ccc3nnn(C)c3c2)cc1 (racemic) [REF-001, reference compound]
5 | > 6.25 | CCCOc1ccc(C2c3c(nn(C)c3C)C(=O)N2c2cc(C)c3nnn(C)c3c2)cc1 (racemic) [REF-002, reference compound]
6 | ≥ 50 | CCCOc1ccc(C2c3c(nn(C)c3C)C(=O)N2c2ccc3nnc(C)n3c2)cc1 (racemic) [REF-003, reference compound]
7 | ≥ 50 | CCCOc1ccc(C2c3c(nn(C)c3C)C(=O)N2c2cc(C)c3nnc(C)n3c2)cc1 (racemic) [REF-004, reference compound]
8 | ≥ 50 | CCCOc1ccc(C2c3c(nn(C)c3C)C(=O)N2c2ccc3nncn3n2)cc1 (racemic) [REF-005, reference compound]
9 | > 6.25 | CCCOc1ccc(C2c3c(nn(C)c3C)C(=O)N2c2cc(C)c3nnc(C)n3n2)cc1 (racemic) [REF-006, reference compound]
10 | > 6.25 | CCCOc1ccc(C2c3c(nn(C)c3C)C(=O)N2c2ccc3nnn(C)c3n2)cc1 (racemic) [REF-007, reference compound]
11 | ≥ 50 | CCCOc1ccc(C2c3c(nn(C)c3C)C(=O)N2c2cc(NC)c3nnc(C)n3n2)cc1 (racemic) [REF-008, reference compound]

Same assay, conditions: Homo sapiens, KBM-7, 72 h, CC2C6 signal, read-out: Cell Pot. Assay No. 6

Row | IC50 [µM] | SMILES
12 | < 1 | CCCOc1ccc(C2c3c(nn(C)c3C)C(=O)N2c2ccc3[nH]cnc3c2)cc1 (racemic) [FRPPO-001]
13 | 1 to 5 | CCCOc1ccc(C2c3c(C)nn(C)c3C(=O)N2c2ccc3[nH]cnc3c2)cc1 (centres unmarked) [FRPPO-002]
14 | 5 to 50 | Cc1c2c(nn1C)C(c1ccc(N3CCC(F)(F)C3)cc1F)N(c1ccc3[nH]cnc3c1)C2=O (centres unmarked) [FRPPO-046]
15 | 5 to 50 | Cc1c2c(nn1C)C(c1ccc(Br)cc1F)N(c1ccc3[nH]cnc3c1)C2=O (centres unmarked) [FRPPO-047]
16 | < 1 | Cc1nn(C)c2c1C(=O)N(c1ccc3[nH]cnc3c1)C2c1ccc(N2CCC(F)(F)C2)cc1F (centres unmarked) [FRPPO-049]
17 | 1 to 5 | Cn1nc(C(F)(F)F)c2c1C(c1ccc(N3CCC(F)(F)C3)cc1F)N(c1ccc3[nH]cnc3c1)C2=O (centres unmarked) [FRPPO-050]
18 | 1 to 5 | Cn1ncc2c1C(c1ccc(Cl)cc1F)N(c1ccc3[nH]cnc3c1)C2=O (centres unmarked) [FRPPO-051]
19 | 5 to 50 | Cc1nn(C)c2c1C(=O)N(c1ccc3[nH]cnc3c1)C2c1ccc(Cl)cc1F (centres unmarked) [FRPPO-052]
20 | 5 to 50 | Cn1nc(C(F)(F)F)c2c1C(c1ccc(Cl)cc1F)N(c1ccc3[nH]cnc3c1)C2=O (centres unmarked) [FRPPO-053]
21 | 1 to 5 | O=C1c2scnc2C(c2ccc(N3CCC(F)(F)C3)cc2F)N1c1ccc2[nH]cnc2c1 (centres unmarked) [FRPPO-054]
22 | 5 to 50 | O=C1c2scnc2C(c2ccc(Cl)cc2F)N1c1ccc2[nH]cnc2c1 (centres unmarked) [FRPPO-057]
23 | 5 to 50 | Cc1nc2c(s1)C(=O)N(c1ccc3[nH]cnc3c1)C2c1ccc(Cl)cc1F (centres unmarked) [FRPPO-058]
24 | 1 to 5 | Cc1nc2c(s1)C(c1ccc(N3CCC(F)(F)C3)cc1F)N(c1ccc3[nH]cnc3c1)C2=O (centres unmarked) [FRPPO-061]
25 | 1 to 5 | O=C1c2ncsc2C(c2ccc(Cl)cc2F)N1c1ccc2[nH]cnc2c1 (centres unmarked) [FRPPO-063]
26 | 5 to 50 | Cc1nc2c(s1)C(c1ccc(Cl)cc1F)N(c1ccc3[nH]cnc3c1)C2=O (centres unmarked) [FRPPO-064]
27 | 1 to 5 | Cc1c2c(nn1C)C(=O)N(c1ccc3[nH]cnc3c1)C2c1ccc(C#N)cc1F (centres unmarked) [FRPPO-069]
28 | 1 to 5 | Cc1c2c(nn1C)C(=O)N(c1ccc3[nH]cnc3c1)C2c1ccc(N2CCC2)cc1F (centres unmarked) [FRPPO-070]
29 | < 1 | Cc1c2c(nn1C)C(=O)N(c1ccc3[nH]cnc3c1)C2c1ccc(N2CC(F)C2)cc1F (centres unmarked) [FRPPO-072]
30 | 1 to 5 | Cc1c2c(nn1C)C(=O)N(c1ccc3[nH]cnc3c1)C2c1ccc(N2CCC(F)C2)cc1F (centres unmarked) [FRPPO-073]
31 | < 1 | Cc1c2c(nn1C)C(=O)N(c1ccc3[nH]cnc3c1)C2c1ccc(N2CCOCC2)cc1F (centres unmarked) [FRPPO-078]
32 | 1 to 5 | Cc1c2c(nn1C)C(=O)N(c1ccc3[nH]cnc3c1)C2c1ccc(N2CCC23COC3)cc1F (centres unmarked) [FRPPO-079]
33 | 1 to 5 | Cc1c2c(nn1C)C(=O)N(c1ccc3[nH]cnc3c1)C2c1ccc(N2CC3CC2CO3)cc1F (centres unmarked) [FRPPO-081]
34 | 5 to 50 | Cc1c2c(nn1C)C(=O)N(c1ccc3[nH]cnc3c1)C2c1ccc(N2CCNC(C)C2)cc1F (centres unmarked) [FRPPO-082]
35 | 1 to 5 | Cc1c2c(nn1C)C(=O)N(c1ccc3[nH]cnc3c1)C2c1ccc(N2CCN(C)CC2)cc1F (centres unmarked) [FRPPO-083]
36 | 5 to 50 | Cc1c2c(nn1C)C(=O)N(c1ccc3[nH]cnc3c1)C2c1ccc(N2CCC(O)CC2)cc1F (centres unmarked) [FRPPO-085]

Row | IC50 [µM] | SMILES
37 | 1 to 5 | Cc1c2c(nn1C)C(=O)N(c1ccc3[nH]cnc3c1)C2c1ccc(N2CCCC(O)C2)cc1F (centres unmarked) [FRPPO-086]
38 | 1 to 5 | Cc1c2c(nn1C)C(=O)N(c1ccc3[nH]cnc3c1)C2c1ccc(N2CC(O)C(F)C2)cc1F (centres unmarked) [FRPPO-089]
39 | < 1 | Cc1c2c(nn1C)C(=O)N(c1ccc3[nH]cnc3c1)C2c1ccc(NCCC(F)(F)F)cc1F (centres unmarked) [FRPPO-092]
40 | 1 to 5 | Cc1c2c(nn1C)C(=O)N(c1ccc3[nH]cnc3c1)C2c1ccc(N2CC3(CCOC3)C2)cc1F (centres unmarked) [FRPPO-095]
41 | < 1 | Cc1c2c(nn1C)C(=O)N(c1ccc3[nH]cnc3c1)C2c1ccc(N2CC3CCC(C2)O3)cc1F (centres unmarked) [FRPPO-096]
42 | < 1 | Cc1c2c(nn1C)C(=O)N(c1ccc3[nH]cnc3c1)C2c1ccc(N2CCC3(COC3)C2)cc1F (centres unmarked) [FRPPO-097]
43 | 5 to 50 | Cc1c2c(nn1C)C(=O)N(c1ccc3[nH]cnc3c1)C2c1ccc(N2CC(C)NC(C)C2)cc1F (centres unmarked) [FRPPO-100]
44 | < 1 | Cc1c2c(nn1C)C(=O)N(c1ccc3[nH]cnc3c1)C2c1ccc(N2CCC3(CCOC3)C2)cc1F (centres unmarked) [FRPPO-104]
45 | 5 to 50 | Cc1c2c(nn1C)C(=O)N(c1ccc3[nH]cnc3c1)C2c1ccc(N2CCS(=O)(=O)CC2)cc1F (centres unmarked) [FRPPO-105]
46 | 1 to 5 | COC(=O)N1CCN(c2ccc(C3c4c(nn(C)c4C)C(=O)N3c3ccc4[nH]cnc4c3)c(F)c2)CC1 (centres unmarked) [FRPPO-107]
47 | < 1 | Cc1c2c(nn1C)C(=O)N(c1ccc3[nH]cnc3c1)C2c1ccc(N2CCOC(C(F)(F)F)C2)cc1F (centres unmarked) [FRPPO-109]
48 | 1 to 5 | Cc1c2c(nn1C)C(=O)N(c1ccc3[nH]cnc3c1)C2c1ccc(N2CCN(S(C)(=O)=O)CC2)cc1F (centres unmarked) [FRPPO-111]
49 | < 1 | Cc1c2c(nn1C)C(=O)N(c1ccc3[nH]cnc3c1)C2c1ccc(N2CCOC[C@@H]2C)cc1F (some centres unmarked) [FRPPO-113A]
50 | < 1 | Cc1c2c(nn1C)C(=O)N(c1ccc3[nH]cnc3c1)C2c1ccc(N2CCOC[C@H]2C)cc1F (some centres unmarked) [FRPPO-113B]
51 | < 1 | Cc1c2c(nn1C)C(=O)N(c1ccc3[nH]cnc3c1)C2c1ccc(N2CCO[C@@H](C)C2)cc1F (some centres unmarked) [FRPPO-114A]
52 | < 1 | Cc1c2c(nn1C)C(=O)N(c1ccc3[nH]cnc3c1)C2c1ccc(N2CCC[C@H]2C)cc1F (some centres unmarked) [FRPPO-115A]
53 | 1 to 5 | Cc1[nH]nc2c1C(c1ccc(N3CCC(F)(F)C3)cc1F)N(c1ccc3[nH]cnc3c1)C2=O (centres unmarked) [FRPPO-126B]
54 | < 1 | Cc1c2c(nn1C1CC1)C(=O)N(c1ccc3[nH]cnc3c1)C2c1ccc(N2CCC(F)(F)C2)cc1F (centres unmarked) [FRPPO-127B]
55 | < 1 | Cc1c2c(nn1C1CC1)C(=O)N(c1ccc3[nH]cnc3c1)C2c1ccc(N2CCC(C(F)(F)F)CC2)cc1F (centres unmarked) [FRPPO-136]
56 | < 1 | Cc1c2c(nn1C1CC1)C(=O)N(c1ccc3[nH]cnc3c1)C2c1ccc(N2CCC(F)(F)CC2)cc1F (centres unmarked) [FRPPO-137]
57 | < 1 | Cc1c2c(nn1C)C(=O)N(c1ccc3[nH]cnc3c1)C2c1ccc(-c2ccc(OC(F)(F)F)nc2)cc1F (centres unmarked) [FRPPO-142A]
58 | < 1 | Cc1c2c(nn1C)C(=O)N(c1ccc3[nH]cnc3c1)C2c1ccc(-c2cnc(C(F)(F)F)s2)cc1F (centres unmarked) [FRPPO-144]
59 | < 1 | Cc1[nH]nc2c1C(c1ccc(-c3cnc(C(F)(F)F)s3)cc1F)N(c1ccc3[nH]cnc3c1)C2=O (centres unmarked) [FRPPO-145]
60 | < 1 | Cc1c2c(nn1C)C(=O)N(c1ccc3[nH]cnc3c1)C2c1ccc(-c2csc(C(F)(F)F)n2)cc1F (centres unmarked) [FRPPO-146]

Row | SMILES | IC50 [µM]
61 | Cc1c2c(nn1C)C(=O)N(c1ccc3[nH]cnc3c1)C2c1ccc(N2CC3CC(C2)O3)cc1F (centres unmarked) [FRPPO-077] | 1 to 5
62 | Cc1c2c(nn1C)C(=O)N(c1ccc3[nH]cnc3c1)C2c1ccc(N2C3CCC2COC3)cc1F (centres unmarked) [FRPPO-093] | 1 to 5
